Test results: patent US12708630B2, “Combined therapy of 4′-thio-5-aza-2′-deoxycytidine and Venetoclax” (PINOTBIO, INC., priority 2021, dated 2026)

Key:
Assay in all cases: drug activity profiling cytotoxicity
Type in all cases: cell-based
MALME3M = conditions: Homo sapiens, Malme-3M; MALME3M cell line, Skin (Melanoma); read-out: Aza-T-dCyd IC50
Procedure, shortened: (§1)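 Aza-T-dCyd profiled, cytotoxicity endpoint, 200-line panel, biomarker-oriented.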

HPAF-II = conditions: Homo sapiens; HPAF-II cell line, Pancreas; read-out: Aza-T-dCyd IC50
Procedure, shortened: as §1

ARH-77 = conditions: Homo sapiens; ARH-77 cell line, B-cell lymphoma; read-out: Aza-T-dCyd IC50
Procedure, shortened: as §1

C32TG = C32TG cell line, Skin (Melanoma); read-out: Aza-T-dCyd IC50
Procedure, shortened: as §1

NCI-H295R = conditions: Homo sapiens; NCI-H295R cell line, Endocrine (Adrenal gland); read-out: Aza-T-dCyd IC50
Procedure, shortened: as §1

Colo 320DM = conditions: Homo sapiens; Colo 320DM cell line, Colon; read-out: Aza-T-dCyd IC50
Procedure, shortened: as §1

KHOS-240S = KHOS-240S cell line, Bone (Osteosarcoma); read-out: Aza-T-dCyd IC50
Procedure, shortened: as §1

C32 = conditions: Homo sapiens; C32 cell line, Skin (Melanoma); read-out: Aza-T-dCyd IC50
Procedure, shortened: as §1

CML-T1 = CML-T1 cell line, read-out: Aza-T-dCyd IC50
Procedure, shortened: as §1

SK-BR-3 = conditions: Homo sapiens; SK-BR-3 cell line, Breast; read-out: Aza-T-dCyd IC50
Procedure, shortened: as §1

A431 = conditions: Homo sapiens, A-431; A431 cell line, Skin (Head and Neck); read-out: Aza-T-dCyd IC50
Procedure, shortened: as §1

A7 = A7 cell line, Skin (Melanoma); read-out: Aza-T-dCyd IC50
Procedure, shortened: as §1

Thp1 = conditions: Homo sapiens, THP-1; Thp1 cell line, AML; read-out: Aza-T-dCyd IC50
Procedure, shortened: as §1

H9 = conditions: Homo sapiens; H9 cell line, T-cell Lymphoma; read-out: Aza-T-dCyd IC50
Procedure, shortened: as §1

UM-UC-3 = conditions: Homo sapiens, UMUC3; UM-UC-3 cell line, Bladder; read-out: Aza-T-dCyd IC50
Procedure, shortened: as §1

IM-9 = conditions: Homo sapiens; IM-9 cell line, B-cell lymphoma; read-out: Aza-T-dCyd IC50
Procedure, shortened: as §1

U-118 MG = conditions: Homo sapiens; U-118 MG cell line, CNS (Glioma); read-out: Aza-T-dCyd IC50
Procedure, shortened: as §1

MDA MB 453 = conditions: Homo sapiens; MDA MB 453 cell line, Breast; read-out: Aza-T-dCyd IC50
Procedure, shortened: as §1

AU565 = conditions: Homo sapiens; AU565 cell line, Breast; read-out: Aza-T-dCyd IC50
Procedure, shortened: as §1

SW403 = conditions: Homo sapiens, SW-403; SW403 cell line, Colon; read-out: Aza-T-dCyd IC50
Procedure, shortened: as §1

HuP-T4 = conditions: Homo sapiens; HuP-T4 cell line, Pancreas; read-out: Aza-T-dCyd IC50
Procedure, shortened: as §1

A498 = conditions: Homo sapiens; A498 cell line, Kidney; read-out: Aza-T-dCyd IC50
Procedure, shortened: as §1

A-704 = conditions: Homo sapiens, A704; A-704 cell line, Kidney; read-out: Aza-T-dCyd IC50
Procedure, shortened: as §1

SK-PN-DW = SK-PN-DW cell line, Sarcoma; read-out: Aza-T-dCyd IC50
Procedure, shortened: as §1

SCC-25 = conditions: Homo sapiens; SCC-25 cell line, Head and Neck; read-out: Aza-T-dCyd IC50
Procedure, shortened: as §1

NCIH441 = conditions: Homo sapiens, NCI-H441; NCIH441 cell line, Lung (NSCLC); read-out: Aza-T-dCyd IC50
Procedure, shortened: as §1

LS411N = conditions: Homo sapiens, LS-411N; LS411N cell line, Colon; read-out: Aza-T-dCyd IC50
Procedure, shortened: as §1

SW620 = conditions: Homo sapiens, SW-620; SW620 cell line, Colon; read-out: Aza-T-dCyd IC50
Procedure, shortened: as §1

PA-1 = conditions: Homo sapiens; PA-1 cell line, Female GU (Ovary); read-out: Aza-T-dCyd IC50
Procedure, shortened: as §1

Hs 746T = conditions: Homo sapiens, Hs746T; Hs 746T cell line, Stomach; read-out: Aza-T-dCyd IC50
Procedure, shortened: as §1

COR-L23 = conditions: Homo sapiens; COR-L23 cell line, Lung (NSCLC); read-out: Aza-T-dCyd IC50
Procedure, shortened: as §1

Which IC50 (MALME3M) does the source give for Nc1ncn([C@H]2CC(O)[C@@H](CO)S2)c(=O)n1 (stereo partly shown) [Aza-T-dCyd, 4′-thio-5-aza-2′-deoxycytidine] here?
The IC50 was 7450 nM.

What about the IC50 (HPAF-II) of the same molecule?
The IC50 was 737 nM.

What about the IC50 (ARH-77) of the same molecule?
The IC50 was 413 nM.

What about the IC50 (C32TG) of the same molecule?
The IC50 was 953 nM.

What about the IC50 (NCI-H295R) of the same molecule?
Its IC50 is > 10000 nM.

What about the IC50 (Colo 320DM) of the same molecule?
Its IC50 is 92.3 nM.

And the IC50 (KHOS-240S)?
Its IC50 is 254 nM.

And the IC50 (C32)?
The IC50 was > 10000 nM.

And the IC50 (CML-T1)?
Its IC50 is 109 nM.

And the IC50 (SK-BR-3)?
The IC50 was 9320 nM.

And the IC50 (A431)?
Its IC50 is 256 nM.

And the IC50 (A7)?
Its IC50 is 1190 nM.

And the IC50 (Thp1)?
Its IC50 is 5120 nM.

And the IC50 (H9)?
Its IC50 is 468 nM.

And the IC50 (UM-UC-3)?
The IC50 was 289 nM.

And the IC50 (IM-9)?
The IC50 was 1050 nM.

And the IC50 (U-118 MG)?
The IC50 was > 10000 nM.

What about the IC50 (MDA MB 453) of the same molecule?
The IC50 was 1890 nM.

What about the IC50 (AU565) of the same molecule?
Its IC50 is > 10000 nM.

What about the IC50 (SW403) of the same molecule?
The IC50 was 619 nM.

What about the IC50 (HuP-T4) of the same molecule?
The IC50 was 321 nM.

What about the IC50 (A498) of the same molecule?
The IC50 was 73.8 nM.

And the IC50 (A-704)?
The IC50 was > 10000 nM.

What about the IC50 (SK-PN-DW) of the same molecule?
Its IC50 is 847 nM.

And the IC50 (SCC-25)?
Its IC50 is 126 nM.

What about the IC50 (NCIH441) of the same molecule?
The IC50 was 1300 nM.

And the IC50 (LS411N)?
The IC50 was 265 nM.

And the IC50 (SW620)?
Its IC50 is 234 nM.

And the IC50 (PA-1)?
Its IC50 is 39.2 nM.

What about the IC50 (Hs 746T) of the same molecule?
Its IC50 is 666 nM.

What about the IC50 (COR-L23) of the same molecule?
Its IC50 is 94.4 nM.
